From patent US12070471B2, “Remote loading of sparingly water-soluble drugs into lipid vesicles” (CELATOR PHARMACEUTICALS, INC., priority 2014, dated 2024)

Experiments:
[1] = Aripiprazole precipitates from various solvents, absorbance at 600 nm with liposomes; type: physicochemical; conditions: drug initially dissolved in DMSO, 1-4-methylpyrrolidone, diethylenemonoethylether or polyethyleneglycol (MW400); 7.5% solvent; 65 C 30 min
Protocol: Aripiprazole was dissolved in a range of solvents indicated below at 4 mg/mL. Liposomes composed of HSPC/Chol/PEG-DSPE (3/2/0.15 mol/mol/mol) that were prepared in 250 mM ammonium sulfate were used and diluted to 6 mM in Hepes buffered sucrose 10% (wt/wt) (HBSuc pH 6.5). 0.3 mg of drug was introduced by slow addition of each solvent while vortexing. The final solvent concentration was 7.5% for all samples. As controls, the drug was added from each solvent to the same volume of HBSuc pH 6.5 without the liposomes. The samples were heated at 65° C. for 30 min then cooled on ice.

[2] = Aripiprazole loading into ammonium sulfate or sodium sulfate liposomes; type: physicochemical; conditions: ratio of ammonium sulfate to sodium sulfate liposomes
Protocol: Liposomes (HSPC/Chol/PEG-DSPE 3/2/0.15 mol/mol/mol) containing 250 mM ammonium sulfate or 250 mM sodium sulfate were diluted in 1 mL of 50 mM citric acid, 10% (wt/wt) sucrose, pH 4.0 to a concentration of 6 mM phospholipid. 0.3 mg of aripiprazole was added from a stock solution of 15 mg/mL in DMSO, so that the final DMSO concentration was 2% (v/v). Fine precipitates were immediately observed after the drug was added to both liposome samples. The samples were heated at 65° C. for 30 min, the cooled on ice. The samples were filtered through a 0.2 um polyethersulfone syringe filter to remove any drug precipitates, followed by purification on a Sephadex G25 column equilibrated with HBS, pH 6.5 to remove any soluble extraliposome drug. The turbid fraction was collected and analyzed for lipid and drug as described above.

In the case of `O=C1CCc2ccc(OCCCCN3CCN(c4cccc(Cl)c4Cl)CC3)cc2N1` [aripiprazole], the “clarification of drug precipitate on incubation with liposomes (absorbance at 600 nm)” value [1] is reported as “clarified the drug precipitate” and the “% Efficiency NH4SO4/NaSO4” value [2] is reported as 49.3.
